Measured values from article PMC6112376, “Comprehensive Analyses and Prioritization of Tox21 10K Chemicals Affecting Mitochondrial Function by in-Depth Mechanistic Studies” (Environmental Health Perspectives, 2018).
Like-named read-outs stand apart in the source and are kept apart here.

Experiments:
[1] = system: Caenorhabditis elegans (Bristol N2); assay: C. elegans larval development and growth assay
[2] = system: mitochondrial respiratory chain complex V; format: biochemical, rat
rat primary hepatocytes [3] = assay: MMP assay in rat primary hepatocytes
[4] = system: Caenorhabditis elegans strain PE255; assay: In vivo C. elegans ATP status assay
rat primary hepatocytes [5] = system: rat primary hepatocytes
[6] = system: mitochondrial respiratory chain complex III; format: biochemical, rat
HepG2 cells [7] = conditions: cited from earlier work
[8] = system: Nrf2/ARE (ARE-bla HepG2 cells); assay: ARE β-lactamase reporter gene assay; format: cell-based, human
HepG2 cells [9] = assay: Oxygen consumption, Seahorse XF24 analyzer; format: cell-based, human
[10] = system: HeLa cells expressing YFP-Parkin; assay: Parkin translocation assay; format: cell-based, human
[11] = system: Caenorhabditis elegans strain PE255; conditions: in vivo
hNSC = assay: MMP assay in human neural stem cells (hNSC); format: cell-based
[12] = system: p53 (p53-bla HCT-116 cells); assay: p53 β-lactamase reporter gene assay; format: cell-based, human
[13] = system: isolated rat liver mitochondria; assay: Oxygen consumption, Clark-type oxygen electrode; format: biochemical
[14] = system: mitochondrial respiratory chain complex I; format: biochemical, rat; conditions: at 20μM
HepG2 cells [15] = assay: ROS-Glo hydrogen peroxide (ROS) assay; format: cell-based, human
[16] = system: Caenorhabditis elegans (Bristol N2); conditions: in vivo
HepG2 cells [17] = assay: Intracellular ATP content (cell viability) assay; format: cell-based, human
[18] = molecular target: T1, mitochondrial respiratory chain complex II (Rattus norvegicus, UniProt P21913+Q641Z9+Q6PCT8+Q920L2); assay: Respiratory chain complex II activity; format: biochemical; conditions: tested up to 100μM
T1 construct: Submitochondrial particles were prepared by subjecting the intact rat mitochondria, isolated as described above, to three successive freeze–thaw cycles; from tissue; host or cells: rat liver mitochondria (submitochondrial particles)

[19] = system: mitochondrial respiratory chain complex IV; format: biochemical, rat
HepG2 cells [20] = system: HepG2 cells

T1 sequence (Q920L2 35-656): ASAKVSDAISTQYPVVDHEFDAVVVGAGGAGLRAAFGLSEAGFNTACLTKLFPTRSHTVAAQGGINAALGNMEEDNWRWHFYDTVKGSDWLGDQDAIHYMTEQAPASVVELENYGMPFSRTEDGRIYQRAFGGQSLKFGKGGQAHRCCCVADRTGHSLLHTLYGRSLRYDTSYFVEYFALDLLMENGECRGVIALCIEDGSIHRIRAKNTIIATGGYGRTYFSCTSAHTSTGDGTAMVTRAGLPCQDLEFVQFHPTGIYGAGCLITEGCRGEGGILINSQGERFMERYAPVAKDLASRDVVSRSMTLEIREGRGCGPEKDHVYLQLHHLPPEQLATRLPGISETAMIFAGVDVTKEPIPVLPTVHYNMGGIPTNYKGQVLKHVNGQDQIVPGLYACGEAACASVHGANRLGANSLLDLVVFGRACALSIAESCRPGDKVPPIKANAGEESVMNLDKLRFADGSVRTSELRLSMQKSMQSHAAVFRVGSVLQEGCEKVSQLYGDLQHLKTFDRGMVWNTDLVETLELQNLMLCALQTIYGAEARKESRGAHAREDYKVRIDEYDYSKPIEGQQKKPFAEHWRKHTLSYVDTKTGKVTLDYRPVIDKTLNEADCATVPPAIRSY
T1 sequence (P21913 31-282): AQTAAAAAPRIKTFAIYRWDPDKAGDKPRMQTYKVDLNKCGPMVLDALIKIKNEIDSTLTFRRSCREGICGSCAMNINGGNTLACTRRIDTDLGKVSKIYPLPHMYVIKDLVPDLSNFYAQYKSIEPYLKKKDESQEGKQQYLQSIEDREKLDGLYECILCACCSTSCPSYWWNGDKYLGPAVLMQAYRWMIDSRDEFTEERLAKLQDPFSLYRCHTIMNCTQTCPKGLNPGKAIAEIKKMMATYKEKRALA
T1 sequence (Q641Z9 1-169): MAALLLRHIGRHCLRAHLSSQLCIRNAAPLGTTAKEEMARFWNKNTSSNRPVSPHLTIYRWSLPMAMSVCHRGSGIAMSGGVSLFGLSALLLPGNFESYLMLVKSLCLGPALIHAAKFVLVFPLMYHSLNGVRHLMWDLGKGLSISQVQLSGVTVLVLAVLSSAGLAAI
T1 sequence (Q6PCT8 57-159): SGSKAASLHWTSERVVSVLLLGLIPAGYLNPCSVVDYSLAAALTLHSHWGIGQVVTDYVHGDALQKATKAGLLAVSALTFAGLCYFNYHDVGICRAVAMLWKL

CO/C=C(/C(=O)OC)c1ccccc1COc1cccc(C(F)(F)F)n1 [Picoxystrobin]
EXT: mean difference in nematode size relative to plate controls ([1]; 0.5 µM): 0.05428 | EXT: mean difference in nematode size relative to plate controls ([1]; 1 µM): 0.004345 | EXT: mean difference in nematode size relative to plate controls ([1]; 5 µM): 1.265 | EXT: mean difference in nematode size relative to plate controls ([1]; 10 µM): 1.24 | EXT: mean difference in nematode size relative to plate controls ([1]; 25 µM): 0.112 | EXT: mean difference in nematode size relative to plate controls ([1]; 50 µM): 0.8304 | EXT: mean difference in nematode size relative to plate controls ([1]; 75 µM): 0.6508 | EXT: mean difference in nematode size relative to plate controls ([1]; 100 µM): 1.291 | effect on larval growth (in words) ([1]; 0.5–100μM): inhibited | LEC EXT: lowest effect concentration for extinction, a measure of nematode size ([1]; in vivo): 5 µM | Complex V % inhibition (activity call) [2]: Inactive | IC50 (rat primary hepatocytes [3]; read-out: MMP assays IC50 (µM) Rat Hepatocytes): 14.6 ± 4.7 µM | IC50 (rat primary hepatocytes [3]; read-out: Rat hepatocytes IC50 (MMP)): 16.1 µM | LUM: mean difference in luminescence (ATP content) relative to plate controls ([4]; 0.5 µM): -0.02313 | LUM: mean difference in luminescence (ATP content) relative to plate controls ([4]; 1 µM): -0.1059 | LUM: mean difference in luminescence (ATP content) relative to plate controls ([4]; 5 µM): 0.5517 | LUM: mean difference in luminescence (ATP content) relative to plate controls ([4]; 10 µM): 0.8678 | LUM: mean difference in luminescence (ATP content) relative to plate controls ([4]; 25 µM): 0.0568 | LUM: mean difference in luminescence (ATP content) relative to plate controls ([4]; 50 µM): 0.3665 | LUM: mean difference in luminescence (ATP content) relative to plate controls ([4]; 75 µM): 0.468 | LUM: mean difference in luminescence (ATP content) relative to plate controls ([4]; 100 µM): 0.877 | effect on ATP content (in words) ([4]; 0.5–100μM): inhibited | LEC LUM: lowest effect concentration for luminescence, a measure of nematode ATP content ([4]; in vivo): 5 µM | MMP assays efficacy (%) Rat Hepatocytes (rat primary hepatocytes [5]): -101+6% | Rat hepatocytes (efficacy) (MMP) (rat primary hepatocytes [5]): 16.1±7.03 ( −77.3±9.18 ) % | inhibitory effect on Complex III at (concentration) [6]: 4 µM | Complex III % inhibition ([6]; at 4μM): 53.3±3.26 at 4μM % | MMP assays efficacy (%) qHTS-HepG2 (HepG2 cells [7]): -116±5% | IC50 (HepG2 cells [7]; read-out: MMP assays IC50 (µM), qHTS-HepG2): 9.31 ± 2.67 µM | EC50 ([8]; 16 h incubation, mean±SD of three experiments, read-out: ARE (HepG2) EC50): 750 ± 490 nM | ARE (HepG2) (efficacy) ([8]; % of positive control): 57.6±7.85% | Activity in oxygen consumption (HepG2 cells [9]): Inhibitor | Parkin recruitment [10]: Inactive | Parkin translocation into mitochondria (in words) ([10]; 3 h): did not induce Parkin translocation | LEC (lowest effect concentration), ATP assay [11]: < 10 µM | hNSC (efficacy) (MMP) (hNSC): 38.2±0.00 ( −92.8±16.3 ) % | IC50 (hNSC; read-out: hNSC IC50 (MMP)): 38.2 µM | EC50 ([12]; 16 h incubation, mean±SD of three experiments): 6.68 ± 2.21 µM | p53 (HCT-116) (efficacy) ([12]; % of positive control): 40.2±19.6% | Potential Mechanism [13]: Inhibitor | effect on mitochondrial respiration (in words) [13]: effects similar to antimycin A | I-ADP, % of control (O2 consumption rate) ([13]; 0.0064 µM): 94 (43.2) % of control | I-sub, % of control (O2 consumption rate) ([13]; 0.0064 µM): 104 (11.7) % of control | II-ADP, % of control (O2 consumption rate) ([13]; 0.0064 µM): 81 (61.2) % of control | II-sub, % of control (O2 consumption rate) ([13]; 0.0064 µM): 101 (20.8) % of control | I-ADP, % of control (O2 consumption rate) ([13]; 0.032 µM): 84 (38.8) % of control | I-sub, % of control (O2 consumption rate) ([13]; 0.032 µM): 103 (11.5) % of control | II-ADP, % of control (O2 consumption rate) ([13]; 0.032 µM): 36 (27.2) % of control | II-sub, % of control (O2 consumption rate) ([13]; 0.032 µM): 74 (15.3) % of control | I-ADP, % of control (O2 consumption rate) ([13]; 0.16 µM): 50 (22.8) % of control | I-sub, % of control (O2 consumption rate) ([13]; 0.16 µM): 90 (10.1) % of control | II-ADP, % of control (O2 consumption rate) ([13]; 0.16 µM): 11 (7.9) % of control | II-sub, % of control (O2 consumption rate) ([13]; 0.16 µM): 41 (8.5) % of control | I-ADP, % of control (O2 consumption rate) ([13]; 0.8 µM): 16 (7.2) % of control | I-sub, % of control (O2 consumption rate) ([13]; 0.8 µM): 59 (6.6) % of control | II-ADP, % of control (O2 consumption rate) ([13]; 0.8 µM): 9 (7.1) % of control | II-sub, % of control (O2 consumption rate) ([13]; 0.8 µM): 33 (6.9) % of control | I-ADP, % of control (O2 consumption rate) ([13]; 4 µM): 9 (4.0) % of control | I-sub, % of control (O2 consumption rate) ([13]; 4 µM): 39 (4.4) % of control | II-ADP, % of control (O2 consumption rate) ([13]; 4 µM): 9 (6.6) % of control | II-sub, % of control (O2 consumption rate) ([13]; 4 µM): 33 (6.9) % of control | I-ADP, % of control (O2 consumption rate) ([13]; 20 µM): 9 (4.1) % of control | I-sub, % of control (O2 consumption rate) ([13]; 20 µM): 34 (3.8) % of control | II-ADP, % of control (O2 consumption rate) ([13]; 20 µM): 10 (7.4) % of control | II-sub, % of control (O2 consumption rate) ([13]; 20 µM): 36 (7.4) % of control | I-ADP, % of control (O2 consumption rate) ([13]; 100 µM): 8 (3.7) % of control | I-sub, % of control (O2 consumption rate) ([13]; 100 µM): 25 (3.9) % of control | II-ADP, % of control (O2 consumption rate) ([13]; 100 µM): 7 (4.7) % of control | II-sub, % of control (O2 consumption rate) ([13]; 100 µM): 16 (4.9) % of control | Complex I % inhibition [14]: 13.2±3.23 at 20μM % | ROS (HepG2) (efficacy) (HepG2 cells [15]): 15.4±5.47 ( 36.2±2.46 ) % | EC50 (HepG2 cells [15]; read-out: ROS (HepG2) EC50): 15.4 µM | LEC (lowest effect concentration), larval growth assay [16]: < 10 µM | ATP (HepG2, galactose) (efficacy) (HepG2 cells [17]): 3.08±0.64 ( −76.4±37.7 ) % | ATP (HepG2, glucose) (efficacy) (HepG2 cells [17]): 3.61±1.57 ( −76.4±30.3 ) % | IC50 (HepG2 cells [17]; read-out: ATP (HepG2, galactose) IC50): 3.08 µM | IC50 (HepG2 cells [17]; read-out: ATP (HepG2, glucose) IC50): 3.61 µM | Complex II % inhibition (activity call) [18]: Inactive | Complex IV % inhibition (activity call) [19]: Inactive | HepG2 (efficacy) Galactose (MMP) (HepG2 cells [20]): 24.4±4.56 ( −119±6.45 ) % | HepG2 (efficacy) Glucose (MMP) (HepG2 cells [20]): 13.6±14.5 ( −62.9±25.1 ) % | MMP assays efficacy (%) HepG2 (HepG2 cells [20]): -122% | IC50 (HepG2 cells [20]; read-out: HepG2 IC50 Galactose (MMP)): 24.4 µM | IC50 (HepG2 cells [20]; read-out: HepG2 IC50 Glucose (MMP)): 13.6 µM | IC50 (HepG2 cells [20]; read-out: MMP assays IC50 (µM) HepG2): 1 µM
